This is an account of results in US20090299049A1, “Bicyclic Compounds and Their Use” (priority 2006, published 2009).

Data set [1] can be described thus: Optical properties: UV-visible spectra, fluorescence excitation and emission. The class given is physicochemical. The note with it: for Stokes shift: (1/λex − 1 λem); for λem: fluorescence emission wavelength; for λex: fluorescence excitation wavelength. The source says:
The optical properties of several novel chromophores were investigated. UV-visible spectra reveal an intense absorption in the UV region for all the compounds evaluated.

Data set [2] is described as follows: UV absorbance and fluorescence of ribonucleoside analogues in DMSO (molar extinction coefficient, quantum yield). The class given is physicochemical. The settings on record: for Quantum yield: relative to quinine sulphate and anthracene standards. From the text:
UV absorbance and fluorescence excitation and emission data were used to determine the molar extinction coefficient and fluorescence quantum yield of a several adenosine and guanosine ribonucleoside analogues in DMSO (see the Table below). The data acquired support the concept that the fluorescence properties of these analogues can be tuned by altering the electron-donating or electron-withdrawing R-group on the terminal phenylalkyne. Fourteen electron-donating or electron-withdrawing R-groups were coupled to purine bases at the 8-position. […] This makes the analogues extremely useful for the quantification of analogue-containing nucleic acid products in a DNA or RNA background. […] The position (ortho, meta or para) of the R-group on the phenyl ring can also be used to tune the fluorescent properties of the analogues. The ring position of the R-group has a smaller effect on the fluorescent properties of the analogues. Greater changes in the excitation/emission wavelength, molar extinction coefficient and quantum yield can be induced by changing the type of R-group (electron-donating vs. electron-withdrawing) as compared to the position of a R-group on the phenyl ring (ortho, meta or para). The quantum yields of the unphosphorylated analogues were measured relative to quinine sulphate and anthracene standards. […] This provides additional support for the idea that the purine bases can both push and pull electrons in π-conjugated systems.

For “8-(1′-Ethynylferrocene)adenosine [Compound 6i]”, in data set [1], the Stokes shift amounted to 3986 cm⁻¹, the λem was 434 nm and the λex is listed as 370 nm.

Turning to “8-(1′-Ethynylferrocene)guanosine [Compound 5i]”, in data set [1], the Stokes shift turned out to be 3537 cm⁻¹, the λem was determined as 439 nm and the λex turned out to be 380 nm.

Consider `Nc1ncnc2c1nc(C#Cc1cccc(C(F)(F)F)c1)n2[C@@H]1O[C@H](CO)[C@@H](O)[C@H]1O` [Adenosine —CF3 meta], for which, in data set [2], the Molar absorption coefficient came to 19547 M⁻¹ cm⁻¹, the “Wavelength at fluorescence emission maximum” value is listed as 421 nm, the “Wavelength at maximum in UV absorption” value is 326 nm and the Quantum yield stood at 21%.

As to `Nc1ncnc2c1nc(C#Cc1ccc(Cl)cc1)n2[C@@H]1O[C@H](CO)[C@@H](O)[C@H]1O` [Adenosine —Cl para], in data set [2], the Molar absorption coefficient came out at 23927 M⁻¹ cm⁻¹, the “Wavelength at fluorescence emission maximum” value was 410 nm, the “Wavelength at maximum in UV absorption” value is given as 326 nm and the Quantum yield came out at 46%.

Consider `Nc1ncnc2c1nc(C#Cc1ccc(F)cc1)n2[C@@H]1O[C@H](CO)[C@@H](O)[C@H]1O` [Adenosine —F para], for which, in data set [2], the Molar absorption coefficient amounted to 5558 M⁻¹ cm⁻¹, the “Wavelength at fluorescence emission maximum” value turned out to be 396 nm, the “Wavelength at maximum in UV absorption” value came out at 320 nm and the Quantum yield is on record as 40%.

Take `COc1cccc(C#Cc2nc3c(N)ncnc3n2[C@@H]2O[C@H](CO)[C@@H](O)[C@H]2O)c1` [Adenosine —OCH3 meta]: in data set [2], the Molar absorption coefficient was 19589 M⁻¹ cm⁻¹, the “Wavelength at fluorescence emission maximum” value worked out at 400 nm, the “Wavelength at maximum in UV absorption” value turned out to be 324 nm and the Quantum yield stood at 52%.

Regarding `COc1ccccc1C#Cc1nc2c(N)ncnc2n1[C@@H]1O[C@H](CO)[C@@H](O)[C@H]1O` [Adenosine —OCH3 ortho], in data set [2], the “Wavelength at fluorescence emission maximum” value amounted to 429 nm, the “Wavelength at maximum in UV absorption” value was determined as 333 nm and the Quantum yield came out at 21%.

In the case of `Nc1nc2c(nc(C#Cc3ccccc3C(F)(F)F)n2[C@@H]2O[C@H](CO)[C@@H](O)[C@H]2O)c(=O)[nH]1` [Guanosine —CF3 ortho], in data set [2], the “Wavelength at fluorescence emission maximum” value came out at 421 nm, the “Wavelength at maximum in UV absorption” value is on record as 347 nm and the Quantum yield is reported as 1.1%.

As to `Nc1nc2c(nc(C#Cc3ccc(Cl)cc3)n2[C@@H]2O[C@H](CO)[C@@H](O)[C@H]2O)c(=O)[nH]1` [Guanosine —Cl para], in data set [2], the Molar absorption coefficient worked out at 23317 M⁻¹ cm⁻¹, the “Wavelength at fluorescence emission maximum” value was 431 nm, the “Wavelength at maximum in UV absorption” value was 338 nm and the Quantum yield came to 1.9%.

Consider `Nc1nc2c(nc(C#Cc3ccc(F)cc3)n2[C@@H]2O[C@H](CO)[C@@H](O)[C@H]2O)c(=O)[nH]1` [Guanosine —F para], for which, in data set [2], the Molar absorption coefficient was determined as 11304 M⁻¹ cm⁻¹, the “Wavelength at fluorescence emission maximum” value was determined as 416 nm, the “Wavelength at maximum in UV absorption” value is 333 nm and the Quantum yield amounted to 2.4%.

As to `COc1cccc(C#Cc2nc3c(=O)[nH]c(N)nc3n2[C@@H]2O[C@H](CO)[C@@H](O)[C@H]2O)c1` [Guanosine —OCH3 meta], in data set [2], the Molar absorption coefficient was 20261 M⁻¹ cm⁻¹, the “Wavelength at fluorescence emission maximum” value is 420 nm, the “Wavelength at maximum in UV absorption” value worked out at 334 nm and the Quantum yield is 3.6%.
